Test results from patent US20060069132A1, “Azolecarboxamide herbicides” (priority 2004, published 2006).

Legend:
velvetleaf [1] = test: Test A pre-/postemergence herbicide test; type: in vivo, Abutilon theophrasti
Outline: (§1)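 Plants are held in greenhouse about ten days after treatment, then compared with untreated controls and scored 0 (no effect) to 100 (complete control). Preemergence dosing is a directed soil spray on sown sandy loam; postemergence dosing is spray to runoff at 2–10 cm height.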

barnyardgrass [2] = test: Test B pre-/postemergence herbicide test; type: in vivo, Echinochloa crus-galli
Outline: (§2)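 Flooded paddy rice and barnyardgrass were treated at the 2-leaf stage; upland plantings received compound either on sown seed or on 1- to 4-leaf seedlings. All were kept 13–15 days in a greenhouse and scored visually, 0–100, relative to untreated plants.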

ducksalad = test: Test B flooded paddy test; type: in vivo, Heteranthera limosa; conditions: 1000 g ai/ha, visual rating, scale 0 to 100 (0 no effect, 100 complete control), 13 to 15 days
Outline: (§3)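 After treating 2-leaf paddy plants or 2–18 cm postemergence plants (1 to 4 leaves) with formulated chemical, researchers kept them in a greenhouse for 13–15 days. Effects were judged visually versus controls: 0 indicates none, 100 total control.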

rice [3] = test: Test B pre-/postemergence herbicide test; type: in vivo, Oryza sativa; conditions: preemergence
Outline: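 Evaluation is visual, comparing treated with control plants on a scale where 0 means no effect and 100 means full control. Treatments were preemergence, or postemergence on seedlings 2–18 cm tall, and held 13–15 days in the greenhouse.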

[4] = system: small flower umbrella sedge; test: Test B flooded paddy test; type: in vivo, Cyperus difformis; conditions: 1000 g ai/ha, visual rating, scale 0 to 100 (0 no effect, 100 complete control), 13 to 15 days
Outline: as §3

giant foxtail [5] = test: Test A pre-/postemergence herbicide test; type: in vivo, Setaria faberi
Outline: as §1

lambsquarters = test: Test B pre-/postemergence herbicide test; type: in vivo, Chenopodium album
Outline: as §2

large crabgrass [6] = test: Test B pre-/postemergence herbicide test; type: in vivo, Digitaria sanguinalis
Outline: as §2

wheat = test: Test B postemergence herbicide test; type: in vivo, Triticum aestivum; design: key to Wheat plant response rating: 0 = no effect, 100 = complete control; conditions: scale 0 (no effect) to 100 (complete control)
Outline: (§4)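 Plants grow to 1- to 4-leaf stage (2–18 cm) for postemergence spraying, or to 2-leaf stage for the paddy test. Formulated compound is applied. Greenhouse holding lasts 13–15 days. Response is scored visually relative to controls, 0 no effect to 100 complete control; a dash means no result.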

corn = test: Test B pre-/postemergence herbicide test; type: in vivo, Zea mays
Outline: as §2

velvetleaf [7] = test: Test B pre-/postemergence herbicide test; type: in vivo, Abutilon theophrasti
Outline: as §2

redroot pigweed = test: Test A pre-/postemergence herbicide test; type: in vivo, Amaranthus retroflexus
Outline: as §1

wild oat = test: Test B postemergence herbicide test; type: in vivo, Avena fatua; conditions: scale 0 (no effect) to 100 (complete control)
Outline: as §4

giant foxtail [8] = test: Test B pre-/postemergence herbicide test; type: in vivo, Setaria faberi
Outline: as §2

pigweed = test: Test B pre-/postemergence herbicide test; type: in vivo, Amaranthus retroflexus
Outline: as §2

Surinam grass = test: Test B pre-/postemergence herbicide test; type: in vivo, Urochloa decumbens
Outline: as §2

barnyardgrass [9] = test: Test A pre-/postemergence herbicide test; type: in vivo, Echinochloa crus-galli
Outline: as §1

morningglory [10] = test: Test A pre-/postemergence herbicide test; type: in vivo, Ipomoea spp.
Outline: as §1

barnyardgrass [11] = test: Test B flooded paddy test; type: in vivo, Echinochloa crus-galli; conditions: 1000 g ai/ha, visual rating, scale 0 to 100 (0 no effect, 100 complete control), 13 to 15 days
Outline: as §3

rice [12] = test: Test B flooded paddy test; type: in vivo, Oryza sativa; conditions: 1000 g ai/ha, visual rating, scale 0 to 100 (0 no effect, 100 complete control), 13 to 15 days
Outline: as §3

morningglory [13] = test: Test B pre-/postemergence herbicide test; type: in vivo, Ipomoea coccinea
Outline: as §2

blackgrass = test: Test B postemergence herbicide test; type: in vivo, Alopecurus myosuroides; conditions: scale 0 (no effect) to 100 (complete control)
Outline: as §3

cocklebur = test: Test B pre-/postemergence herbicide test; type: in vivo, Xanthium strumarium
Outline: as §2

large crabgrass [14] = test: Test A pre-/postemergence herbicide test; type: in vivo, Digitaria sanguinalis
Outline: as §1

[15] = Postemergence, 500 g ai/ha, 0 to 100 scale, 0 no effect, 100 complete control
[16] = Postemergence, 2000 g ai/ha, 0 to 100 scale, 0 no effect, 100 complete control
[17] = Preemergence, 500 g ai/ha, visual rating, 0 to 100 scale (0 no effect, 100 complete control)
[18] = 500 g ai/ha, visual rating 0-100, 0 no effect, 100 complete control, preemergence
[19] = Postemergence, 500 g ai/ha, visual rating after 13 to 15 days, scale 0 (no effect) to 100 (complete control)
[20] = postemergence, 125 g ai/ha, visual rating, scale 0 (no effect) to 100 (complete control)
[21] = preemergence, 125 g ai/ha, 0 to 100 scale, 0 is no effect, 100 is complete control
[22] = Preemergence, 2000 g ai/ha, 0 to 100 scale, 0 no effect, 100 complete control
[23] = Postemergence, 500 g ai/ha, visual rating after 13 to 15 days
[24] = postemergence, 125 g ai/ha, visual rating

Structure (SMILES): CCn1nc(C(C)(C)C)cc1C(=O)Nc1cccc(C(=O)OC(C)C)c1C [Compound 92]
- Velvetleaf plant response rating (velvetleaf [1]; [15]): 0
- Plant response rating, Velvetleaf (velvetleaf [1]; [16]): 0
- Velvetleaf plant response rating (velvetleaf [1]; [17]): 0
- Velvetleaf plant response rating (velvetleaf [1]; Preemergence, 2000 g ai/ha, visual rating, 0 to 100 scale (0 no effect, 100 complete control)): 0
- Plant response rating, Barnyardgrass (barnyardgrass [2]; [18]): 0
- Plant response rating, Barnyardgrass (barnyardgrass [2]; [19]): 0
- Barnyardgrass plant response rating (barnyardgrass [2]; [20]): 0
- Plant response rating, Barnyardgrass (barnyardgrass [2]; [21]): 0
- Ducksalad plant response rating (ducksalad): 0
- Plant response rating, Rice (rice [3]; 500 g ai/ha, visual rating 0-100, 0 no effect, 100 complete control): 0
- Plant response rating, Rice (rice [3]; 125 g ai/ha, 0 to 100 scale, 0 is no effect, 100 is complete control): 0
- Sedge, Umbrella plant response rating [4]: 0
- Foxtail, Giant plant response rating (giant foxtail [5]; [15]): 0
- Plant response rating, Foxtail, Giant (giant foxtail [5]; [16]): 0
- Foxtail, Giant plant response rating (giant foxtail [5]; [17]): 0
- Foxtail, Giant plant response rating (giant foxtail [5]; [22]): 0
- Plant response rating, Lambsquarters (lambsquarters; [18]): 0
- Plant response rating, Lambsquarters (lambsquarters; [19]): 20
- Lambsquarters plant response rating (lambsquarters; [20]): 20
- Plant response rating, Lambsquarters (lambsquarters; [21]): 0
- Plant response rating, Crabgrass, Large (large crabgrass [6]; [18]): 10
- Plant response rating, Crabgrass, Large (large crabgrass [6]; [19]): 10
- Crabgrass, Large plant response rating (large crabgrass [6]; [20]): 0
- Plant response rating, Crabgrass, Large (large crabgrass [6]; [21]): 0
- Plant response rating, Wheat (wheat; [23]): 0
- Wheat plant response rating (wheat; [24]): 0
- Plant response rating, Corn (corn; [18]): 0
- Plant response rating, Corn (corn; [19]): 10
- Corn plant response rating (corn; [20]): 10
- Plant response rating, Corn (corn; [21]): 0
- Plant response rating, Velvetleaf (velvetleaf [7]; [18]): 0
- Plant response rating, Velvetleaf (velvetleaf [7]; [19]): 0
- Velvetleaf plant response rating (velvetleaf [7]; [20]): 0
- Plant response rating, Velvetleaf (velvetleaf [7]; [21]): 0
- Pigweed plant response rating (redroot pigweed; [15]): 0
- Plant response rating, Pigweed (redroot pigweed; [16]): 0
- Pigweed plant response rating (redroot pigweed; [17]): 0
- Pigweed plant response rating (redroot pigweed; [22]): 35
- Plant response rating, Oat, Wild (wild oat; [23]): 0
- Oat, Wild plant response rating (wild oat; [24]): 0
- Plant response rating, Foxtail, Giant (giant foxtail [8]; [18]): 10
- Plant response rating, Foxtail, Giant (giant foxtail [8]; [19]): 0
- Foxtail, Giant plant response rating (giant foxtail [8]; [20]): 0
- Plant response rating, Foxtail, Giant (giant foxtail [8]; [21]): 0
- Plant response rating, Pigweed (pigweed; [18]): 0
- Plant response rating, Pigweed (pigweed; [19]): 10
- Pigweed plant response rating (pigweed; [20]): 0
- Plant response rating, Pigweed (pigweed; [21]): 0
- Plant response rating, Surinam Grass (Surinam grass; [18]): 0
- Plant response rating, Surinam Grass (Surinam grass; [19]): 10
- Surinam Grass plant response rating (Surinam grass; [20]): 0
- Plant response rating, Surinam Grass (Surinam grass; [21]): 0
- Barnyardgrass plant response rating (barnyardgrass [9]; [15]): 0
- Plant response rating, Barnyardgrass (barnyardgrass [9]; [16]): 0
- Barnyardgrass plant response rating (barnyardgrass [9]; [17]): 0
- Barnyardgrass plant response rating (barnyardgrass [9]; [22]): 0
- Morningglory plant response rating (morningglory [10]; [15]): 0
- Plant response rating, Morningglory (morningglory [10]; [16]): 0
- Morningglory plant response rating (morningglory [10]; [17]): 0
- Morningglory plant response rating (morningglory [10]; [22]): 0
- Barnyardgrass plant response rating (barnyardgrass [11]): 0
- Rice plant response rating (rice [12]): 0
- Plant response rating, Morningglory (morningglory [13]; [18]): 0
- Plant response rating, Morningglory (morningglory [13]; [19]): 0
- Morningglory plant response rating (morningglory [13]; [20]): 0
- Plant response rating, Morningglory (morningglory [13]; [21]): 0
- Plant response rating, Blackgrass (blackgrass; [23]): 0
- Blackgrass plant response rating (blackgrass; [24]): 0
- Plant response rating, Cocklebur (cocklebur; [18]): 0
- Plant response rating, Cocklebur (cocklebur; [19]): 0
- Cocklebur plant response rating (cocklebur; [20]): 0
- Plant response rating, Cocklebur (cocklebur; [21]): 0
- Crabgrass, Large plant response rating (large crabgrass [14]; [15]): 0
- Plant response rating, Crabgrass, Large (large crabgrass [14]; [16]): 10
- Crabgrass, Large plant response rating (large crabgrass [14]; [17]): 0
- Crabgrass, Large plant response rating (large crabgrass [14]; [22]): 0
